Data as given in patent US6992089B2, “Nitro and amino substituted topoisomerase agents” (Rutgers, The University of New Jersey, priority 2002, dated 2006).
Read-outs that look alike come from different tables or passages of the source.

How the values were obtained:
[1] = tested on: RPMI 8402; assay: Test B: MTT-microtiter plate tetrazolinium cytotoxicity assay, RPMI 8402; type: cell-based; settings: Homo sapiens, RPMI 8402, 96 h, read-out: Cytotoxicity IC50 RPMI 8402
Description: (§1) The cytotoxicity was determined using the MTT-microtiter plate tetrazolinium cytotoxicity assay (MTA—See Mosmann, T., J. Immunol. Methods 1983, 65, 55-63; Carmichael, J., et al., Cancer Res. 1987, 47, 936-942; and Denizot, F., et al., J. Immunol. Methods 1986, 89, 271-277). […] The cytotoxicity assay was performed using 96-well microtiter plates. Cells were grown in suspension at 37° C. in 5% CO2 and maintained by regular passage in RPMI medium supplemented with 10% heat-inactivated fetal bovine serum, L-glutamine (2 mM), penicillin (100 U/mL), and streptomycin (0.1 mg/mL). […] For determination of IC50, cells were exposed continuously for 4 days to varying concentrations of drug, and MTT assays were performed at the end of the fourth day. […] All assays were performed at least twice in 6 replicate wells.

[2] = tested on: CPT-K5; assay: Test B: MTT-microtiter plate tetrazolinium cytotoxicity assay, CPT-K5 (camptothecin-resistant variant); type: cell-based; settings: Homo sapiens, CPT-K5, 96 h, read-out: Cytotoxicity IC50 CPT-K5
Description: as §1

[3] = tested on: P388; assay: MTT cytotoxicity assay, P388; type: cell-based; settings: Mus musculus, P388, 96 h, read-out: Cytotoxicity IC50 P388
Description: as §1

[4] = biological target: T1, human topoisomerase I (Homo sapiens, UniProt P11387); assay: Test A: topoisomerase I-mediated DNA cleavage assay; type: biochemical; settings: concentration relative to topotecan (=1) producing the same cleavage on plasmid DNA in presence of human TOP1
T1 construct: unnamed fusion partner (recombinant fusion protein, T7 expression system); made in house; host or cells: E. coli
T1 sequence (P11387 1-765): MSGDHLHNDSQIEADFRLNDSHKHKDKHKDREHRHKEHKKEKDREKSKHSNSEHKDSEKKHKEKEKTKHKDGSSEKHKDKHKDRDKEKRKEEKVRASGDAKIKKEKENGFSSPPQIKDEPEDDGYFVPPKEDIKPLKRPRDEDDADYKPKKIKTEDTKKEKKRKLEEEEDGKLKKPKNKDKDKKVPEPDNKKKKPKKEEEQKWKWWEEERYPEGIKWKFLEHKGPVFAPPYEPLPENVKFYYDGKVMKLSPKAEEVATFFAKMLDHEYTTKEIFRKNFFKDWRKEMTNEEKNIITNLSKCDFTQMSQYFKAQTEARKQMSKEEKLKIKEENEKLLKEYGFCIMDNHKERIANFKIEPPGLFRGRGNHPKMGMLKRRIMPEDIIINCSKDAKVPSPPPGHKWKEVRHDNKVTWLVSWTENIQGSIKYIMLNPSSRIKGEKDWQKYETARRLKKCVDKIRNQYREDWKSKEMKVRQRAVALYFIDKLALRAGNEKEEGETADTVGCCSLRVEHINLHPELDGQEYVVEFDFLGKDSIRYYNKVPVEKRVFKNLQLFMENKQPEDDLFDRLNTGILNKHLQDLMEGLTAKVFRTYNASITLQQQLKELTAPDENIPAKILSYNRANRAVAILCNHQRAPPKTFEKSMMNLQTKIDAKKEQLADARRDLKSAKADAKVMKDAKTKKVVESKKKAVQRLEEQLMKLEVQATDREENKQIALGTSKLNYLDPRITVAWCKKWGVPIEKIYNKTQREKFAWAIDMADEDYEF
Excerpt: Test A. Topoisomerase-Mediated DNA Cleavage Assays
Human topoisomerase I was expressed in E. Coli and isolated as a recombinant fusion protein using a T7 expression system as described by Gatto, B., et al., Cancer Res. 1996, 56, 2795-2800. Plasmid YepG was purified by the alkali lysis method followed by phenol deproteination and CsCl/ethidium isopycnic centrifugation method as described by Maniatis, T., et al., J. Molecular Cloning, a Laboratory Manual; Cold Spring Harbor Laboratory: Cold Spring Harbor, N.Y. 1982; pp 149-185. The end-labeling of the plasmid was accomplished by digestion with a restriction enzyme followed by end-filling with Klenow polymerase as previously described by Tewey, K. M., et al., Science 1984, 226, 466-468. The cleavage assays were performed as previously reported (see Gatto, B., et al., Cancer Res. 1996, 56, 2795-2800; and Wang, H., et al., Biochemistry 2001, 40; 3316-3323). The drug and the DNA in presence of topoisomerase I was incubated for 30 minutes at 37° C. The reactions were terminated by the addition of 5 μl of 5% SDS and 1 mg/ml […] with an additional 1 hour of incubation at 37° C. Samples were then alkali denatured by the addition of NaOH, EDTA, sucrose, and bromophenol blue to final concentrations of 75 mM, 2.5%, and 0.05 mg/ml, respectively, prior to loading onto a neutral agarose gel. After development of the gels, typically 24-hour exposure was used to obtain autoradiograms outlining the extent of DNA fragmentation.

[5] = tested on: P388/CPT45; assay: MTT cytotoxicity assay, P388/CPT45; type: cell-based; settings: Mus musculus, P388CPT45, 96 h, read-out: Cytotoxicity IC50 P388/CPT45
Description: as §1

SMILES	melting point	IC50 [1] [nM]	IC50 [2] [nM]	IC50 [3] [nM]	TOP1-mediated DNA Cleavage (REC, relative effective concentration) [4]	IC50 [5] [nM]	IC50 ([3]; 4 days of continuous drug exposure) [nM]	IC50 ([1]; 4 days of continuous drug exposure, MTT) [nM]
COc1cc2c(=O)n(CCN(C)C)c3c4cc([N+](=O)[O-])ccc4nnc3c2cc1OC [Compound 12a, 11-(2-Dimethylaminoethyl)-2,3-dimethoxy-9-nitro-11H-5,6,11-triazachrysen-12-one]	262 to 264 °C (dec.)	3	3300					
COc1cc2c(=O)n(CCN(C)C)c3c4ccccc4nnc3c2cc1OC [Compound 12b, 11-(2-Dimethylaminoethyl)-2,3-dimethoxy-11H-5,6,11-triazachrysen-12-one, reference compound]		18	1500					
COc1cc([C@@H]2c3cc4c(cc3[C@@H](O[C@@H]3O[C@@H]5CO[C@@H](c6cccs6)O[C@H]5[C@H](O)[C@H]3O)[C@H]3COC(=O)[C@H]23)OCO4)cc(OC)c1O [VM-26, teniposide, reference compound]			280					
COc1cc2c(=O)n(CCN(C)C)c3c4ccccc4ncc3c2cc1OC [Compound 5, 8,9-Dimethoxy-5-[2-(N,N-dimethylamino)ethyl]-5H-dibenzo[c,h]1,6-naphthyridin-6-one, reference compound]		100	1650	70	10	300		
COc1cc2c(=O)n(CCN(C)C)c3c4ccc(N)cc4ncc3c2cc1OC [Compound 4b, 2-Amino-8,9-dimethoxy-5-[2-(N,N-dimethylamino)ethyl]-5H-dibenzo[c,h][1,6]naphthyridin-6-one]	208 to 210 °C	100	2100	60	12	230		
CC[C@@]1(O)C(=O)OCc2c1cc1n(c2=O)Cc2cc3ccccc3nc2-1 [CPT, Camptothecin, reference compound]						> 10000	9	5
CC[C@@]1(O)C(=O)OCc2c1cc1n(c2=O)Cc2cc3c(CN(C)C)c(O)ccc3nc2-1 [Topotecan, reference compound]			> 50000	35	1	> 10000		
COc1cc2c(=O)n(CCN(C)C)c3c(cnc4cccc(N)c43)c2cc1OC [Compound 4d, 4-Amino-8,9-dimethoxy-5-[2-(N,N-dimethylamino)ethyl]-5H-dibenzo[c,h][1,6]-naphthyridin-6-one]	239 to 241 °C	4000	8000	3000	>300	3500		
COc1cc2c(=O)n(CCN(C)C)c3c4ccc([N+](=O)[O-])cc4ncc3c2cc1OC [Compound 3b, 8,9-Dimethoxy-2-nitro-5-[2-(N,N-dimethylamino)ethyl]-5H-dibenzo[c,h][1,6]naphthyridin-6-one]	214 to 217 °C	75	3350	30	6	340		
COc1cc2c(=O)n(CCN(C)C)c3c4cccc([N+](=O)[O-])c4ncc3c2cc1OC [Compound 3a, 8,9-Dimethoxy-1-nitro-5-[2-(N,N-dimethylamino)ethyl]-5H-dibenzo[c,h][1,6]naphthyridin-6-one]	257 to 258 °C	220	3000	190	9	2100		
COc1cc2c(=O)n(CCN(C)C)c3c4cc(N)ccc4ncc3c2cc1OC [Compound 4c, 3-Amino-8,9-dimethoxy-5-[2-(N,N-dimethylamino)ethyl]-5H-dibenzo[c,h][1,6]naphthyridin-6-one]	213 to 215 °C	40	1350	20	6	330		
COc1cc2c(=O)n(CCN(C)C)c3c4cc([N+](=O)[O-])ccc4ncc3c2cc1OC [Compound 3c, 8,9-Dimethoxy-3-nitro-5-[2-(N,N-dimethylamino)ethyl]-5H-dibenzo[c,h][1,6]naphthyridin-6-one]	232 to 234 °C	18	800	40	2	200		
COc1cc2c(=O)n(CCN(C)C)c3c4cccc(N)c4ncc3c2cc1OC [Compound 4a, 1-Amino-8,9-dimethoxy-5-[2-(N,N-dimethylamino)ethyl]-5H-dibenzo[c,h][1,6]naphthyridin-6-one]	226 to 229 °C	650	2000	350	100	210		
COc1cc2c(=O)n(CCN(C)C)c3c(cnc4cccc([N+](=O)[O-])c43)c2cc1OC [Compound 3d, 8,9-Dimethoxy-4-nitro-5-[2-(N,N-dimethylamino)ethyl]-5H-dibenzo[c,h][1,6]-naphthyridin-6-one]	194 to 195 °C	5500	11500	6000	>300	7000		
